According to patent US20210353624A1, “METHOD OF TREATING CANCER WITH TELOTRISAT OR A PRODRUG THEREOF” (TerSera Therapeutics LLC, priority 2020, published 2021):

What was measured:
[1] = system: human intrahepatic CCA cells CCLP-1; assay: Tumor growth study in CCLP-1 subcutaneous xenografts; format: in vivo, NOD/SCID mice
Experimental: (§3) The human intrahepatic CCA cells CCLP-1 were cultured in DMEM containing 10% FBS. Animal survival was studied in a peritoneal dissemination model, and a tumor growth study was performed in subcutaneous xenografts using 4-6 weeks old female NOD/SCID mice by injecting 10×10^6 CCLP-1 cells per mouse. Ten days after tumor cell injection, mice were randomized (n=4-7) to receive PBS (control), gemcitabine (50 mg/kg, 2×wk), cisplatin (2.5 mg/kg, 2×wk survival study, 1×wk tumor growth study), nab-paclitaxel (5 mg/kg, 2×wk) or telotristat ethyl (100 mg/kg, 5×wk), for two weeks. In the survival study, mice were monitored daily and euthanized when moribund, and survival was measured from the first day of treatment until death. In the tumor growth study, tumor size was measured twice per week and tumor volume was measured using the formula V=½ (L×W2, with L=length and W=width). Comparative statistics utilized one-way ANOVA, Student's t-test and logrank methods.

[2] = Physician assessed outcomes in TELEACE subgroup with worsening tumor status at TE initiation; format: in vivo, human
Excerpt: A follow-up analysis of real-world clinical practice experience with TE was initiated in patients with physician-documented worsening tumor status based on radiological reports. The analysis was directed to the subgroup of patients from the TELEACE study with worsening tumor status at the time of TE initiation. Baseline carcinoid syndrome (CS) symptoms, Eastern Cooperative Oncology Group (ECOG) performance status, and weight were compared after at least six months of TE treatment.
A total of 33 patients (17%) in TELEACE had worsened tumor status at the time TE of initiation. The mean patient age was 60 years, with 58% female and 76% white. The majority of these patients had intermediate grade tumor (67%). Prior to TE initiation, 61% had received SSA treatment, and 33% had received other NET treatment, which included liver-directed therapy, surgery, chemotherapy, targeted therapy, and Peptide Receptor Radionuclide Therapy (PRRT). The average duration of TE treatment was 14±10.5 months. […] Additionally, a majority of patients had significant improvement/remained stable in CS symptoms, ECOG performance status, and weight after TE initiation (Table 6).

liposarcoma (94T778) = assay: Cell confluence of tumor cell line grown with telotristat ethyl; format: cell-based; conditions: 94T778 cells; 0, 5, 15 and 30 μM telotristat ethyl; 24 to 96 hours; confluence decreased progressively with concentration
Experimental: (§1) This example provides experiments assessing the effects of telotristat ethyl on three aggressive cancer cell lines—liposarcoma (94T778), colon cancer (HT-29), and cholangiocarcinoma (TFK-1)—and three “normal” cell lines—fallopian tube epithelium (FT240), ovarian surface epithelium (OSE22), and first trimester placental fibroblasts (FTP).
(§2) The cells were grown with 0, 5, 15 and 30 μM telotristat ethyl, plated into four-chambered slides with an initial confluence of at least 30%, and cultured for 24 to 96 hours. At the end of each 24-hour period, cell density was measured with hematoxylin, and the presence of 5-HT was assessed by immunohistochemistry. Experiments were performed in triplicate. Cell confluence was determined, and the 5-HT expression was recorded as an H-score.

colon cancer (HT-29) = assay: as above; format: cell-based; conditions: HT-29 cells; 0, 5, 15 and 30 μM telotristat ethyl; 24 to 96 hours; impact ranked between 94T778 and TFK-1
Experimental: as §1, §2

5-HT = assay: Biomarker changes after TE initiation (TELEACE): 5-HT; format: in vivo, human; conditions: n=22
Experimental: This example provides the effects of telotristat ethyl treatment on selected patient biomarkers (i.e., u5-HIAA; CgA; 5-HT; and NT-proBNP) in the retrospective, single arm study of Example 4.
The average (SD) duration of documented TE treatment was 12.0 (7.3) months with a median (IQR) of 9.0 (6.8, 15.2) months. In many cases, a patient received a TE dosage of 250 mg three times per day.
The continuous measures of biomarker values pre- and post-TE initiation were described using mean, SD, median, and IQR. The biomarkers were assessed only among patients with complete biomarker assessment results in both pre-TE and post-TE initiation periods. A Wilcoxon signed rank test was used to calculate P-values for the mean change in biomarker value.
Patients with reported biomarker values below, at, or above normal range in pre-TE and post-TE initiation periods were described using proportions and frequencies. The biomarkers were assessed only among patients with complete biomarker assessment results in both pre-TE and post-TE initiation periods. McNemar's test was used to calculate P-values for the differences in paired proportions of patients with values above the upper limit of normal.
To evaluate the relationship between the change in biomarker values (i.e., u5-HIAA; CgA; 5-HT) and the change in tumor progression between the pre- and post-TE periods, Pearson's correlation coefficient was used to assess the correlation between biomarker assessments and tumor sizes and to derive the associated P-values. The correlations were assessed only among patients with complete biomarker assessment results in both pre-TE and post-TE initiation periods. The relationship between biomarker values and tumor sizes during pre-TE and post-TE initiation period was presented using scatterplots.
For the biomarker results below, the pre-TE initiation period is defined as 12 months before the index date (initiation of TE). The assessment closest to the index date during the pre-TE period was reported for each biomarker.
The post-TE initiation period is defined as a period from index date to the earlier of end of treatment with TE or date of chart abstraction. The assessment closest to the date of chart abstraction during the post-TE period was reported for each biomarker.
The data includes patients with reported biomarker values, units, and laboratory ranges during pre- and post-TE initiation periods. It excludes patients who had different biomarker units or laboratory ranges reported pre- and post-TE initiation.
The normal range was defined by reported laboratory lower limit of normal and upper limit of normal.
The Wilcoxon signed rank test was used to calculate P-values for the mean change in biomarker values pre- and post-TE initiation.
Table 5-4 is based on patients who had complete biomarker assessment results (u5-HIAA: N=22; 5-HT: N=22) in both pre-TE and post-TE initiation periods. Correlation analysis was not conducted for CgA and NT-proBNP due to small sample sizes for CgA (n=15) and NT-proBNP (n=2). Pearson's correlation coefficient was used to assess the correlation between biomarker assessments and tumor sizes and to derive the associated P-values. Values have been converted to mg/24 hours based on the following conversion rate: […].

[3] = system: human intrahepatic CCA cells CCLP-1; assay: Animal survival in CCLP-1 peritoneal dissemination model; format: in vivo, NOD/SCID mice; conditions: two weeks therapy: gemcitabine 50 mg/kg 2×wk, cisplatin 2.5 mg/kg 2×wk, nab-paclitaxel 5 mg/kg 2×wk, telotristat ethyl 100 mg/kg 5×wk, controls 47 days
Experimental: as §3

CCOC(=O)[C@@H](N)Cc1ccc(-c2cc(O[C@H](c3ccc(Cl)cc3-n3ccc(C)n3)C(F)(F)F)nc(N)n2)cc1 [telotristat ethyl, (S)-ethyl 2-amino-3-(4-(2-amino-6-((R)-1-(4-chloro-2-(3-methyl-1H-pyrazol-1-yl)phenyl)-2,2,2-trifluoroethoxy)pyrimidin-4-yl)phenyl)propanoate]
tumor weight at the completion of therapy ([1]; controls 0.187 g): 0.091 g | net tumor growth ([1]; gemcitabine 50 mg/kg 2×wk, cisplatin 2.5 mg/kg 1×wk, nab-paclitaxel 5 mg/kg 2×wk, telotristat ethyl 100 mg/kg 5×wk, two weeks, controls 199 mm^3): 93 mm^3 | Diarrhea: Improved ([2]; 33 patients with worsened tumor status at TE initiation, n = 26, P<0.001): 88% | CS symptoms compared to baseline measures ([2]; 33 patients with worsened tumor status, TE treatment 14±10.5 months): each patient experienced improvement in at least one CS symptom | Nausea: Remained the Same ([2]; worsened tumor status subgroup, n = 4): 20% | Nausea: Improved ([2]; worsened tumor status subgroup, n = 4, P=0.432): 80% | Abdominal pain: Remained the Same ([2]; worsened tumor status subgroup, n = 8): 11% | Abdominal pain: Improved ([2]; worsened tumor status subgroup, n = 8, P=0.020): 89% | Flushing: Remained the Same ([2]; worsened tumor status subgroup, n = 14): 18% | Flushing: Improved ([2]; worsened tumor status subgroup, n = 14, P=0.008): 82% | Diarrhea: Remained the Same ([2]; worsened tumor status subgroup, n = 26): 12% | Weight: Remained the Same ([2]; worsened tumor status subgroup, n = 31): 55% | Weight: Improved ([2]; worsened tumor status subgroup, n = 31, P=0.017): 32% | ECOG score: Remained the Same ([2]; worsened tumor status subgroup, n = 33): 73% | ECOG score: Improved ([2]; worsened tumor status subgroup, n = 33, P<0.001): 24% | cell confluence (liposarcoma (94T778)): most impacted | cell confluence (colon cancer (HT-29)): between these two | 5-HT Measurement (ng/24 hours) Post-TE Initiation, Median (IQR) (5-HT; IQR 320.0, 700.0, pre-TE 459.5 (389.0, 701.0)): 399.5 ng/24 hours | 5-HT Below normal range Post-TE, n (%) (5-HT; pre-TE 0 (0)): 0 (0) n (%) | 5-HT At normal range Post-TE, n (%) (5-HT; pre-TE 1 (4.5)): 2 (9.1) n (%) | 5-HT Above normal range Post-TE, n (%) (5-HT; pre-TE 21 (95.5), P=0.317): 20 (90.9) n (%) | 5-HT Measurement (ng/24 hours) Post-TE Initiation, Mean ± SD (5-HT; pre-TE 648.9 ± 448.1, P=0.026): 533.5 ± 329.2 ng/24 hours | animal survival [3]: 52 days
